The results in this text go back to patent US20240174625A1, “COMPOSITIONS AND METHODS FOR TREATING TAUOPATHIES” (The Regents of the University of California, priority 2021, published 2024).

In test [1] the test system is superoxide dismutase 1 (SOD1). Nature of the test: SOD1 protein level in human primary cortical neurons. It counts as cell-based. The settings on record: 50 μM, 48 hrs. The method, then:
(§1) FIG. 11. Potential applications of NPEPPS enhancer JMM series on other neurodegenerative diseases. JMM001 (Cp 1) at 50 μM reduces protein levels of huntingtin (htt), SOD1, ataxin, and alpha-synuclein in human primary cortical neurons. Neurons were treated with 50 μM JMM001 or 10 uM bestatin for 48 hrs. N=3-4±SEM.

The target in test [2] is T1, NPEPPS (Homo sapiens, UniProt P55786).
T1 construct: endogenous in cells; host or cells: HEK293T
Nature of the test: Cell-based NPEPPS activity assay (Q-AMC fluorescence). The settings on record: log10 transformed; EC50 = concentration that elevates 50% NPEPPS activity (150% of DMSO baseline); HEK293T cells. The procedure, abridged: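 HEK293T cells (16,500/well) on poly-L-ornithine in minimal medium with compounds in 20-step 2-fold dilution for 24 h, then H-Gln-AMC added (30 μl of 200 μM). Fluorescence (ex/em 360/460 nm) read at addition and 3 h later; change in fluorescence taken as NPEPPS activity, giving EC50 versus DMSO control.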

Test [3] deals with ataxin-3. Nature of the test: Ataxin-3 protein level in human primary cortical neurons. It counts as cell-based. The following applies: 50 μM, 48 hrs. The method, then:
as §1

Test [4] relates to α-synuclein. Nature of the test: alpha-synuclein protein level in human primary cortical neurons. It counts as cell-based. The settings on record: 50 μM, 48 hrs. The method, then: as §1
Test [5] concerns the target Recombinant human (rh) NPEPPS protein (Homo sapiens, UniProt P55786). Nature of the test: Cell-free thermal shift (protein stability) assay. The settings on record: concentration-dependent. It counts as binding. The method, then:
Cell-free thermal shift assay: Recombinant human (rh) NPEPPS protein was diluted in Buffer A (20 mM Tris, 137 mM NaCl, pH 7.5) to a final concentration of 1.25 μM and added to a pre-chilled 384-well microplate (Biorad HSR4801). JMM001, dimethyl sulfoxide (DMSO, Sigma D2650), or NPEPPS inhibitor puromycin dihydrochloride (Sigma P8833) in 1 μl was then added to each well, mixed with gentle aspiration, and incubated with rhNPEPPS for 3 min on ice. SYPRO Orange (Invitrogen S6651) was diluted to 200× concentration in Buffer A and added to each well achieving a final dilution of 1:20, mixed with gentle aspiration. The final assay volume was 20 μl. The plate was sealed followed by a brief spin-down. The samples were analyzed on a Real-time PCR system (Roche LightCycler 480) from 20° C. to 85° C. at a continuous acquisition rate of 5 measurements/° C. and measured at excitation/emission wavelengths of 533/580 nm. Melting temperature is calculated as the lowest derivative of the fluorescence signal as a function of the temperature as previously described^7,18.

T1 sequence (P55786 whole entry): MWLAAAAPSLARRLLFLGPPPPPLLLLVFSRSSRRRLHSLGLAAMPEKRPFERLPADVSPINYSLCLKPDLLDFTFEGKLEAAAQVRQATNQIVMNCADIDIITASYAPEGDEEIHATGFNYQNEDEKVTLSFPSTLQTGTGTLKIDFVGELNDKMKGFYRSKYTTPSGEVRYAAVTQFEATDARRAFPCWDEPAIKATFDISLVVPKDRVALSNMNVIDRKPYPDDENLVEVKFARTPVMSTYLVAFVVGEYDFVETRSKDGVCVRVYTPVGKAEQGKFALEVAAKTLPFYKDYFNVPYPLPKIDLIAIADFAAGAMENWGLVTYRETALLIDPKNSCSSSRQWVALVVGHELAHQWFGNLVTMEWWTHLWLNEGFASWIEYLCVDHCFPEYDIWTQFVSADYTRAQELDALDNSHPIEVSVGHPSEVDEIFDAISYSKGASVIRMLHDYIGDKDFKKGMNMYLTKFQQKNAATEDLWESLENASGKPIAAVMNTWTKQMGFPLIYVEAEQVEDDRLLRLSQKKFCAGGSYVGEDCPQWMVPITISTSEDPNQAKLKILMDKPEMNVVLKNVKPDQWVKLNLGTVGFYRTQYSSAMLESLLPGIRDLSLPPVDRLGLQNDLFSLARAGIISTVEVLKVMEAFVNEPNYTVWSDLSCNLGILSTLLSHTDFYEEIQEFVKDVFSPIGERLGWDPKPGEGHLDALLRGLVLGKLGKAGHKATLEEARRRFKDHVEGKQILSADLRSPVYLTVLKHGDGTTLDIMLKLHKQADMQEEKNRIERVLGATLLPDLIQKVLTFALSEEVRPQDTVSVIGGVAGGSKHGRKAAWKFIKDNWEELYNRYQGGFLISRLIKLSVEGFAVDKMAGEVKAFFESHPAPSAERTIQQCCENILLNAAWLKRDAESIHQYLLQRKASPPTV
Recombinant human (rh) NPEPPS protein, sequence (P55786 whole entry): as above

Regarding `COc1ccc(CNc2nsc3ccccc23)cc1OC` [JMM001], in test [1], the “protein level of SOD1” value is on record as “reduces”. This molecule also gave an EC50 in test [2] of 15.8 µM. The “protein level of ataxin-3” value in test [3] is on record as “reduces”. In addition, in test [4], the “protein level of α-synuclein” value is “reduces”. Also, the “melting temperature of rhNPEPPS” value in test [5] is given as “significant, concentration-dependent increases in melting temperature”.
Turning to `c1ccc2c(CNc3nsc4ccccc34)cccc2c1` [JMM013], the EC50 in test [2] was 15.1 µM.
`c1ccc2c(c1)-c1ccccc1C2Nc1nsc2ccccc12` [JMM052] showed an EC50 in test [2] of 17 µM.
In test [2], `CN(Cc1ccc(C(F)(F)F)cc1)c1nsc2ccccc12` [JMM067] gave an EC50 of 8.13 µM.
In the case of `c1ccc(COc2ccc(CNc3nsc4ccc(OCc5ccccc5)cc34)cc2)cc1` [JMM083], in test [2], the EC50 was 0.708 µM.
